How the values were obtained:
[1] = system: Human immunodeficiency virus; assay: Antiviral activity against Human immunodeficiency virus harboring integrase Q148K mutant infected in human HeLa cells expressing CD4 after 2 days by beta galactosidase assay relative to wild type HIV; format: functional
[2] = system: Human immunodeficiency virus; assay: Antiviral activity against pseudo Human immunodeficiency virus infected in HEK293T cells after 2 days in presence of human serum albumin; format: functional, organism-based; settings: Human immunodeficiency virus 1, HEK-293T, 48 h
[3] = system: Human immunodeficiency virus; assay: Antiviral activity against pseudo Human immunodeficiency virus infected in HEK293T cells after 2 days; format: functional, organism-based; settings: Human immunodeficiency virus 1, HEK-293T, 48 h
[4] = system: Human immunodeficiency virus; assay: Ratio of IC50 for pseudo Human immunodeficiency virus to IC50 for pseudo Human immunodeficiency virus in presence of human serum albumin; format: functional
[5] = molecular target: Human immunodeficiency virus type 1 integrase (Human immunodeficiency virus 1, UniProt Q7ZJM1); assay: Inhibition of HIV-1 integrase strand transfer activity using [3H]-DNA as substrate preincubated for 60 mins prior to substrate addition measured after 25 to 45 mins
Human immunodeficiency virus type 1 integrase, sequence (Q7ZJM1 whole entry): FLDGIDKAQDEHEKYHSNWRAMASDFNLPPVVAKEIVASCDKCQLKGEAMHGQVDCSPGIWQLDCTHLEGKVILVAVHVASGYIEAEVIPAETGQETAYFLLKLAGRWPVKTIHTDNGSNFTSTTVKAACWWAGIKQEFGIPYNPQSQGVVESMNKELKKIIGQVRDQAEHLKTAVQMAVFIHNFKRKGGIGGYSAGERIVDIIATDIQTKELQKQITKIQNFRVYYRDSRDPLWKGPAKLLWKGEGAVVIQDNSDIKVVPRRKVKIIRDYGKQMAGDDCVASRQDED

[6] = system: Human immunodeficiency virus 1; assay: Antiviral activity against Human immunodeficiency virus 1 3B infected in human MT4 cells after 4 to 5 days by bioluminescence assay in presence of human serum relative to control; format: functional
[7] = system: Human immunodeficiency virus 1; assay: Antiviral activity against Human immunodeficiency virus 1 3B infected in human MT4 cells after 4 to 5 days by bioluminescence assay; format: functional, organism-based
[8] = system: Human immunodeficiency virus 1; assay: Antiviral activity against Human immunodeficiency virus 1 Ba-L infected human PBMC after 7 days by [methyl-3H]dTTP incorporation assay; format: functional, organism-based; settings: 168 h
[9] = Oral bioavailability in rat; format: ADME, organism-based; settings: in vivo
[10] = Clearance in iv dosed rat; format: ADME, organism-based; settings: in vivo

Compound | fold change (FC) [1] | IC50 [2] | IC50 [3] | further results
CS(=O)(=O)CC[C@H]1CO[C@@H]2Cn3cc(C(=O)NCc4ccc(F)cc4F)c(=O)c(O)c3C(=O)N12 | >10 | 370 nM | 430 nM | –
C[C@@H]1CCN2C(=O)c3c(O)c(=O)c(C(=O)NCc4ccc(F)cc4F)cn3C[C@@H]2O1 | 2.1 | 7 nM | 0.9 nM | –
O=C(NCc1ccc(F)cc1F)c1cn2c(c(O)c1=O)C(=O)N1[C@@H](CC3CCCCC3)CO[C@@H]1C2 | >15 | 3100 nM | 330 nM | –
CC[C@@H]1CO[C@H]2Cn3cc(C(=O)NCc4ccc(F)cc4F)c(=O)c(O)c3C(=O)N12 | 63 | 35 nM | 8.5 nM | –
CC[C@H](C)[C@H]1CO[C@@H]2Cn3cc(C(=O)NCc4ccc(F)cc4F)c(=O)c(O)c3C(=O)N12 | 200 | 200 nM | 20 nM | –
COC[C@H]1CCN2C(=O)c3c(O)c(=O)c(C(=O)NCc4ccc(F)cc4F)cn3C[C@H]2O1 | 3.5 | 0.9 nM | 0.4 nM | Ratio IC50 [4]: 2
C[C@@H]1CO[C@H]2Cn3cc(C(=O)NCc4ccc(F)cc4F)c(=O)c(O)c3C(=O)N12 | 35 | 39 nM | 5.4 nM | Ratio IC50 [4]: >7
C[C@@H]1CCN2C(=O)c3c(O)c(=O)c(C(=O)NCc4ccc(F)cc4)cn3C[C@@H]2O1 | – | 25 nM | 2.1 nM | IC50 [5]: 5 nM; Ratio IC50 [4]: 12
COC[C@@H]1CCN2C(=O)c3c(O)c(=O)c(C(=O)NCc4ccc(F)cc4F)cn3C[C@@H]2O1 | 5 | 2.3 nM | 1.4 nM | Ratio IC50 [4]: 2
O=C(NCc1ccc(F)cc1F)c1cn2c(c(O)c1=O)C(=O)N1[C@@H](c3ccccc3)CO[C@@H]1C2 | 44 | 620 nM | 72 nM | –
Cc1nnc(C(=O)NC(C)(C)c2nc(C(=O)NCc3ccc(F)cc3)c([O-])c(=O)n2C)o1.[K+] [RALTEGRAVIR POTASSIUM] | 79 | 7.1 nM | 2 nM | Ratio IC50 [4]: 77
C[C@@H]1CCO[C@H]2Cn3cc(C(=O)NCc4ccc(F)cc4F)c(=O)c(O)c3C(=O)N12 [DOLUTEGRAVIR] | 0.4 | 22 nM | 1.7 nM | fold change (FC) [6]: 75; IC50 [7]: 2 nM; IC50 [8]: 0.5 nM; IC90 [2]: 0.0374 µg/mL
CC(C)C[C@@H]1CO[C@H]2Cn3cc(C(=O)NCc4ccc(F)cc4F)c(=O)c(O)c3C(=O)N12 | 51 | 16 nM | 3.2 nM | –
CC(C)[C@H]1CO[C@@H]2Cn3cc(C(=O)NCc4ccc(F)cc4F)c(=O)c(O)c3C(=O)N12 | 100 | 300 nM | 4.8 nM | –
CC(C)(C)[C@H]1CO[C@@H]2Cn3cc(C(=O)NCc4ccc(F)cc4)c(=O)c(O)c3C(=O)N21 | 74 | 35 nM | 4 nM | –
CC(C)(C)[C@H]1CO[C@@H]2Cn3cc(C(=O)NCc4ccc(F)cc4F)c(=O)c(O)c3C(=O)N21 | 130 | 130 nM | 20 nM | –
O=C(NCc1ccc(F)cc1F)c1cn2c(c(O)c1=O)C(=O)N1[C@@H](Cc3ccc(O)cc3)CO[C@@H]1C2 | 1.6 | 22 nM | 2.1 nM | –
O=C(NCc1ccc(F)cc1F)c1cn2c(c(O)c1=O)C(=O)N1[C@@H](Cc3ccccc3)CO[C@@H]1C2 | 13 | 380 nM | 13 nM | –
O=C(NCc1ccc(F)cc1F)c1cn2c(c(O)c1=O)C(=O)N1[C@@H](CO)CO[C@@H]1C2 | 12 | 37 nM | 10 nM | –
C[C@H]1CCO[C@@H]2Cn3cc(C(=O)NCc4ccc(F)cc4F)c(=O)c(O)c3C(=O)N12 | 2.2 | 4 nM | 0.5 nM | –
O=C(NCc1ccc(F)cc1)c1cn2c(c(O)c1=O)C(=O)N1CCCO[C@@H]1C2 | 11 | 9.4 nM | 2.2 nM | bioavailability [9]: 52%; clearance [10]: 0.17 mL/min/kg

Compound | fold change (FC) [1] | IC50 [2] | IC50 [3] | further results
C[C@H]1CCN2C(=O)c3c(O)c(=O)c(C(=O)NCc4ccc(F)cc4F)cn3C[C@H]2O1 | 2.8 | 1.5 nM | 0.5 nM | –
CC(C)[C@@H]1CO[C@H]2Cn3cc(C(=O)NCc4ccc(F)cc4F)c(=O)c(O)c3C(=O)N21 | 73 | 16 nM | 4 nM | –
C[C@H]1CO[C@@H]2Cn3cc(C(=O)NCc4ccc(F)cc4F)c(=O)c(O)c3C(=O)N2C1 | 5.7 | 5.2 nM | 0.5 nM | –
C[C@H]1CCN2C(=O)c3c(O)c(=O)c(C(=O)NCc4ccc(F)cc4)cn3C[C@H]2O1 | – | 3.3 nM | 1.3 nM | –
CC[C@@H]1CCN2C(=O)c3c(O)c(=O)c(C(=O)NCc4ccc(F)cc4F)cn3C[C@@H]2O1 | 4.6 | 9.4 nM | 0.7 nM | –
CC(C)[C@H]1CCN2C(=O)c3c(O)c(=O)c(C(=O)NCc4ccc(F)cc4F)cn3C[C@H]2O1 | 1.9 | 4.1 nM | 0.7 nM | –
O=C(NCc1ccc(F)cc1)c1cn2c(c(O)c1=O)C(=O)N1CCCOC1C2 (racemic) | 2.8 | 20 nM | 1.9 nM | bioavailability [9]: 51%; clearance [10]: 0.1 mL/min/kg
CC1(C)CO[C@H]2Cn3cc(C(=O)NCc4ccc(F)cc4)c(=O)c(O)c3C(=O)N2C1 | 3.6 | 440 nM | 1.1 nM | –
O=C(NCc1ccc(F)cc1)c1cn2c(c(O)c1=O)C(=O)N1CCCO[C@H]1C2 | 2.4 | 81 nM | 1.9 nM | Ratio IC50 [4]: 43; bioavailability [9]: 79%; clearance [10]: 0.1 mL/min/kg
CCCC[C@H]1CO[C@@H]2Cn3cc(C(=O)NCc4ccc(F)cc4F)c(=O)c(O)c3C(=O)N12 | >57 | 1800 nM | 87 nM | –
CSCC[C@H]1CO[C@@H]2Cn3cc(C(=O)NCc4ccc(F)cc4F)c(=O)c(O)c3C(=O)N12 | – | 18 nM | 3.1 nM | –
C[C@@H]1CO[C@H]2Cn3cc(C(=O)NCc4ccc(F)cc4)c(=O)c(O)c3C(=O)N2C1 | 36 | 210 nM | 0.8 nM | –
C[C@H]1CO[C@@H]2Cn3cc(C(=O)NCc4ccc(F)cc4)c(=O)c(O)c3C(=O)N2C1 | 9.9 | 5.6 nM | 0.7 nM | –
CC[C@H]1CCN2C(=O)c3c(O)c(=O)c(C(=O)NCc4ccc(F)cc4F)cn3C[C@H]2O1 | 2.2 | 3.1 nM | 0.5 nM | –
O=C(NCc1ccc(F)cc1F)c1cn2c(c(O)c1=O)C(=O)N1CC[C@@H](c3ccccc3)O[C@H]1C2 | 8.5 | 50 nM | 5.6 nM | –
CC[C@H]1CO[C@@H]2Cn3cc(C(=O)NCc4ccc(F)cc4F)c(=O)c(O)c3C(=O)N12 | – | 63 nM | 0.9 nM | –
O=C(NCc1ccc(F)cc1F)c1cn2c(c(O)c1=O)C(=O)N1[C@H](Cc3ccccc3)CO[C@H]1C2 | 19 | 4.5 nM | 0.6 nM | Ratio IC50 [4]: >7
CC(C)[C@@H]1CCN2C(=O)c3c(O)c(=O)c(C(=O)NCc4ccc(F)cc4F)cn3C[C@@H]2O1 | 8.1 | 20 nM | 2 nM | –
CC1(C)CO[C@@H]2Cn3cc(C(=O)NCc4ccc(F)cc4)c(=O)c(O)c3C(=O)N2C1 | 8.1 | 7.9 nM | 2 nM | –
O=C(NCc1ccc(F)cc1F)c1cn2c(c(O)c1=O)C(=O)N1[C@@H](Cc3c[nH]c4ccccc34)CO[C@@H]1C2 | 22 | 71 nM | 1.6 nM | –
C[C@H]1CO[C@@H]2Cn3cc(C(=O)NCc4ccc(F)cc4)c(=O)c(O)c3C(=O)N12 | 13 | 50 nM | 2.1 nM | –
